What was measured:
[1] = target: T1, circulating SAP (Mus musculus, UniProt P12246); test: Circulating SAP in normal wild type mice; assay type: in vivo; settings: none of the routes caused depletion
T1 construct: all the endogenous mouse SAP in the deposits; from tissue; host or cells: mice in vivo: amyloidotic organs, or plasma of normal wild type mice
T1 sequence (P12246 21-224): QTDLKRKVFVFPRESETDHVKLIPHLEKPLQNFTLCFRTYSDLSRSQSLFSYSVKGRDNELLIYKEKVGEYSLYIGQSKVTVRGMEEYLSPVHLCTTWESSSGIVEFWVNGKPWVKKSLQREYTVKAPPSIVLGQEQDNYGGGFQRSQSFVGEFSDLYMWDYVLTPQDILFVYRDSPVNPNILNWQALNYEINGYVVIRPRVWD
Protocol: When (R)-1-[6-(R)-2-Carboxy-pyrrolidin-1-yl]-6-oxo-hexanoyl]pyrrolidine-2-carboxylic acid was administered by continuous infusion for 5 days via an indwelling osmotic pump, it dissociated both radiolabelled human SAP tracer, with which the amyloid deposits had previously been loaded, and all the endogenous mouse SAP in the deposits (FIG. 3). […] The SAP-(R)-1-[6-(R)-2-Carboxy-pyrrolidin-1-yl]-6-oxo-hexanoyl]pyrrolidine-2-carboxylic acid complex is evidently recognised as abnormal in vivo and swiftly removed from the circulation, but is apparently formed and/or cleared less efficiently in vivo with mouse SAP compared to human SAP.

[2] = target: serum amyloid P component (SAP) (Homo sapiens, UniProt P02743); test: Inhibition of SAP binding to amyloid fibrils in vitro
Sequence of serum amyloid P component (SAP) (P02743 20-223): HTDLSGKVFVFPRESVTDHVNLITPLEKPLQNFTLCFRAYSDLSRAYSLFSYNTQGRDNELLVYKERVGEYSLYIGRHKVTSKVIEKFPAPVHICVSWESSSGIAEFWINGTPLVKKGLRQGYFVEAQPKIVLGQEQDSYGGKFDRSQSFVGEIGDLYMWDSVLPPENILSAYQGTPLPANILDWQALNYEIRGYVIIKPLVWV
From the text: A method for screening and testing inhibitors of serum amyloid P component (SAP) binding to amyloid fibrils in vitro was devised and used in collaboration with F Hoffmann-La Roche Ltd to identify a suitable lead molecule for drug development. A library of candidate compounds was screened accordingly. The subsequent collaborative medicinal chemistry programme led to synthesis of a family of dicarboxylic acid, pyrrolidone ring containing molecules, of which the most studied is (R)-1-[6-(R)-2-Carboxy-pyrrolidin-1-yl]-6-oxo-hexanoyl]pyrrolidine-2-carboxylic acid. This molecule and related compounds (EP-A-0915088) are modestly potent inhibitors of SAP binding to amyloid fibrils in vitro, with IC50 values around 0.5-1.0 μM.
Further studies determined that each of the following bis-D-Proline compounds were tested for their ability to deplete SAP in vivo as described above. Each of the compounds identified below successfully depleted SAP. In addition, certain of the compounds were further tested for in vitro inhibition of binding of SAP to amyloid fibrils in accordance with the protocol provided in EP 0915088 at page 10, as referenced above. The results are shown in the second column below, where applicable.

[3] = target: T2, CRP in whole human serum (Homo sapiens, UniProt P02741); test: Size exclusion chromatography of whole human serum mixed with drug: CRP; assay type: binding
T2 construct: Aliquots of a single pool of whole normal human serum, containing SAP and CRP; from tissue; host or cells: pooled whole normal human serum
T2 sequence (P02741 19-224): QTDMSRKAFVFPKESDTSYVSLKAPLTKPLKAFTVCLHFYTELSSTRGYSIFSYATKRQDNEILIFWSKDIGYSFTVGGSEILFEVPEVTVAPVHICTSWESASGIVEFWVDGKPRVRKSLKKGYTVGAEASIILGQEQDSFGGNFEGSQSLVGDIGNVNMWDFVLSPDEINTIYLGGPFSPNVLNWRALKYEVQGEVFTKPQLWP
Protocol: Aliquots of a single pool of whole normal human serum, containing SAP and CRP, were mixed with (R)-1-[6-(R)-2-Carboxy-pyrrolidin-1-yl]-6-oxo-hexanoyl]pyrrolidine-2-carboxylic acid at the molar ratios shown, with respect to pentraxin protomer, and analysed by size exclusion chromatography precisely as described previously (14). The mixtures and the column eluants contained either no calcium ions or 2 mM calcium, and the concentrations of drug appropriate to maintain the molar ratios indicated above. SAP in whole serum is a stable soluble pentameric assembly of protomers, stabilised by the presence of the normal high concentration of serum albumin. However as SAP is separated from serum albumin during gel filtration with a calcium containing eluant, the SAP autoaggregates and elutes entirely as high molecular weight polymers in the void volume of the column. This is because, in the absence of a specific ligand to which it can bind, isolated human SAP is insoluble in the presence of calcium (14). However in the absence of calcium, where no ligand binding or autoaggregation can occur, SAP forms stable decamers, providing an excellent marker for the elution volume of this molecular assembly (14). Human CRP is a stable pentamer either in the presence or absence of calcium and thus provides a robust marker for the elution position of that molecular form (14).

[4] = target: 123I-SAP (Homo sapiens, UniProt P02743); test: Quantitative whole body 123I-SAP scintigraphy in patients during drug infusion; assay type: in vivo
Sequence of 123I-SAP (P02743 20-223): as the sequence (P02743 20-223) above
From the text: This patient, with a modest load of AL amyloid in the spleen and kidneys, had notable blood pool background of tracer in the heart and circulation before administration of the drug.
This patient, with modest load of AL amyloid in the spleen and kidneys, had notable blood pool background of tracer in the heart and circulation before administration of the drug.
Direct evidence for depletion of SAP from amyloid in the organs and for the mechanism of action of (R)-1-[6-(R)-2-Carboxy-pyrrolidin-1-yl]-6-oxo-hexanoyl]pyrrolidine-2-carboxylic acid was obtained by quantitative whole body scintigraphy using ^123I-SAP as a tracer. Each patient received a standard dose of ^123I-SAP 24 h before the (R)-1-[6-(R)-2-Carboxy-pyrrolidin-1-yl]-6-oxo-hexanoyl]pyrrolidine-2-carboxylic acid infusion started and was scanned immediately before treatment to provide a baseline image and values for localisation of tracer to the amyloid deposits. They were then scanned at intervals thereafter, up to the end of the 48 h infusion. (R)-1-[6-(R)-2-Carboxy-pyrrolidin-1-yl]-6-oxo-hexanoyl]pyrrolidine-2-carboxylic acid caused dramatic clearance of tracer from the plasma, exactly paralleling both in the scintigraphic images and in counting of blood samples, the SAP depletion monitored by immunoassay of the serum. […] At the same time there was a marked decrease in the retention of tracer in amyloid deposits elsewhere, exemplified by the spleen and kidneys, in contrast to the usual situation in control untreated amyloidosis patients (Table 2; FIG. 6).
All patients had systemic AL amyloidosis and received a standard intravenous tracer dose of ^123I-SAP at time zero. After whole body quantitative scintigraphic imaging at 24 h, uptake in liver and spleen were taken as 100% for each individual. Intravenous infusion of the drug (R)-1-[6-(R)-2-Carboxy-pyrrolidin-1-yl]-6-oxo-hexanoyl]pyrrolidine-2-carboxylic acid was then started and scintigraphy with organ counting was repeated at 48 h. The controls received no treatment. Significance of differences between the two groups was sought by t-test.

[5] = drug:protein 1:1, calcium present
[6] = drug:protein 10:1, calcium present
[7] = drug:protein 100:1, calcium present
[8] = 24 h after starting infusion, second patient
[9] = 48 h after starting infusion, second patient
[10] = 48 h after tracer injection (drug infusion started at 24 h), 24 h uptake = 100%, 7 patients

- IC50 ([2]; read-out: IC50, inhibition of SAP binding to amyloid fibrils in vitro): 500 to 1000 nM
- Elution volume [3, 5]: 12.0 to 12.5 mL
- Molecular assembly [3, 5]: Pentamer
- Elution volume [3, 6]: 12.0 to 12.5 mL
- Molecular assembly [3, 6]: Pentamer
- Elution volume [3, 7]: 12.0 to 12.5 mL
- Molecular assembly [3, 7]: Pentamer
- Blood pool background of 123I-SAP tracer ([4]; 6 h after starting infusion, first patient): completely absent
- Kidney counts, of time 0 [4, 8]: 77%
- Spleen counts, of time 0 [4, 8]: 85%
- Blood pool background of 123I-SAP tracer ([4]; 24 h and 48 h after starting infusion, second patient): completely absent
- Kidney counts, of time 0 [4, 9]: 50%
- Spleen counts, of time 0 [4, 9]: 54%
- 123I-SAP retention [mean (SD)%], Liver [4, 10]: 125 (20) %
- 123I-SAP retention [mean (SD)%], Spleen [4, 10]: 54 (18) %
- Blood pool signal of 123I-SAP tracer ([4]; by 6 h after starting treatment and persisting thereafter): virtually disappeared
SMILES: O=C(O)[C@H]1CCCN1C(=O)CCCCC(=O)N1CCC[C@@H]1C(=O)O [(R)-1-[6-(R)-2-Carboxy-pyrrolidin-1-yl]-6-oxo-hexanoyl]pyrrolidine-2-carboxylic acid]
- Routes that caused depletion of circulating SAP in normal wild type mice [1]: neither oral administration, nor intermittent injection or continuous infusion
- Potency as inhibitor of SAP binding to amyloid fibrils relative to original lead compound ([2]; compared with 1-(3-Mercapto-2-methyl-1-oxopropyl)-D-proline): more potent inhibitors than the original lead compound

From patent US8173694B2, “Therapeutic agent” (Pentraxin Therapeutics Limited, priority 2001, dated 2012)
